Experimental data from paper PMC11181338 (Journal of Medicinal Chemistry, 2024).

Key:
hERG channels = conditions: cited from earlier work; for % of hERG current blocked: 10 μM
human KCNT1 [1] = molecular target: T1, human KCNT1 (Homo sapiens, UniProt Q5JUK3); assay: FluxOR thallium; type: cell-based
T1 sequence (Q5JUK3 1-1256 isoform Q5JUK3-2): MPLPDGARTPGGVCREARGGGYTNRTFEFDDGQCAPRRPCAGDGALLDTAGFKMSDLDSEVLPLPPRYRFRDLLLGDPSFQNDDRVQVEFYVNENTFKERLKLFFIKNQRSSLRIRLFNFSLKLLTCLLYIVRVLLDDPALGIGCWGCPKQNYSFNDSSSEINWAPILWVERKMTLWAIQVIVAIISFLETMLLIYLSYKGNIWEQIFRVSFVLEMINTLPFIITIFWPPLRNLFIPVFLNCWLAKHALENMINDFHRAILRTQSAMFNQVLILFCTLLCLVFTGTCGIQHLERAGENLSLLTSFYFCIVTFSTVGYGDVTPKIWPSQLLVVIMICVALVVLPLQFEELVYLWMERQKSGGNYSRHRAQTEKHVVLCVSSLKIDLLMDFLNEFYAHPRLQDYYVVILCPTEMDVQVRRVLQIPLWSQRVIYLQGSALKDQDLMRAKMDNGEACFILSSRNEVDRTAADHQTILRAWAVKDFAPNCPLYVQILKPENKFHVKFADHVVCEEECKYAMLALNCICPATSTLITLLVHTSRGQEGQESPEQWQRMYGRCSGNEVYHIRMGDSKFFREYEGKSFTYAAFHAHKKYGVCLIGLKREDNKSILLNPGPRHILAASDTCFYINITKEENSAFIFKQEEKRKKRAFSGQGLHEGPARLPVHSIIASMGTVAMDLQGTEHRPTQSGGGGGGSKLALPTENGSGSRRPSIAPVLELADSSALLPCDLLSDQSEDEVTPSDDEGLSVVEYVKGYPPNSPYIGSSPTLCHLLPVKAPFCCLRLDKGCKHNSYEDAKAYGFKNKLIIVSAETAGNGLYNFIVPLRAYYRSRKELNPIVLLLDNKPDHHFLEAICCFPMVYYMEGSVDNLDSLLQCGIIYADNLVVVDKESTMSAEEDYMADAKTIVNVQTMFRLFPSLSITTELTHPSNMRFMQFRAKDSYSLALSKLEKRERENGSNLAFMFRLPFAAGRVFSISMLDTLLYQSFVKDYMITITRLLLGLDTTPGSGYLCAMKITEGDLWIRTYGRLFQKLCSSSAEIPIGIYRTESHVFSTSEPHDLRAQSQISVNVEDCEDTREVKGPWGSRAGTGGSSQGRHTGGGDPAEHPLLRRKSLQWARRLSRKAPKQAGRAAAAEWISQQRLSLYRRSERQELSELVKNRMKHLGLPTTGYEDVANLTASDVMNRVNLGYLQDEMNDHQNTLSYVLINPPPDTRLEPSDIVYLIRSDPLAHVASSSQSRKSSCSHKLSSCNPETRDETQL

human KCNT1 [2] = molecular target: T1, human KCNT1; assay: Whole-cell patch-clamp, CHO cells transiently transfected with hKCNT1; type: cell-based; conditions: 10 μM
hERG = hERG (Homo sapiens, UniProt Q12809); assay: Whole-cell patch-clamp, CHO cells transiently transfected with hERG; conditions: for inhibition at 10 µM: human, pH 7.4, % of hERG inhibition, tail currents at −100 mV; for hERG-blocking activity: 10 μM
Chain of hERG (Q12809 whole entry): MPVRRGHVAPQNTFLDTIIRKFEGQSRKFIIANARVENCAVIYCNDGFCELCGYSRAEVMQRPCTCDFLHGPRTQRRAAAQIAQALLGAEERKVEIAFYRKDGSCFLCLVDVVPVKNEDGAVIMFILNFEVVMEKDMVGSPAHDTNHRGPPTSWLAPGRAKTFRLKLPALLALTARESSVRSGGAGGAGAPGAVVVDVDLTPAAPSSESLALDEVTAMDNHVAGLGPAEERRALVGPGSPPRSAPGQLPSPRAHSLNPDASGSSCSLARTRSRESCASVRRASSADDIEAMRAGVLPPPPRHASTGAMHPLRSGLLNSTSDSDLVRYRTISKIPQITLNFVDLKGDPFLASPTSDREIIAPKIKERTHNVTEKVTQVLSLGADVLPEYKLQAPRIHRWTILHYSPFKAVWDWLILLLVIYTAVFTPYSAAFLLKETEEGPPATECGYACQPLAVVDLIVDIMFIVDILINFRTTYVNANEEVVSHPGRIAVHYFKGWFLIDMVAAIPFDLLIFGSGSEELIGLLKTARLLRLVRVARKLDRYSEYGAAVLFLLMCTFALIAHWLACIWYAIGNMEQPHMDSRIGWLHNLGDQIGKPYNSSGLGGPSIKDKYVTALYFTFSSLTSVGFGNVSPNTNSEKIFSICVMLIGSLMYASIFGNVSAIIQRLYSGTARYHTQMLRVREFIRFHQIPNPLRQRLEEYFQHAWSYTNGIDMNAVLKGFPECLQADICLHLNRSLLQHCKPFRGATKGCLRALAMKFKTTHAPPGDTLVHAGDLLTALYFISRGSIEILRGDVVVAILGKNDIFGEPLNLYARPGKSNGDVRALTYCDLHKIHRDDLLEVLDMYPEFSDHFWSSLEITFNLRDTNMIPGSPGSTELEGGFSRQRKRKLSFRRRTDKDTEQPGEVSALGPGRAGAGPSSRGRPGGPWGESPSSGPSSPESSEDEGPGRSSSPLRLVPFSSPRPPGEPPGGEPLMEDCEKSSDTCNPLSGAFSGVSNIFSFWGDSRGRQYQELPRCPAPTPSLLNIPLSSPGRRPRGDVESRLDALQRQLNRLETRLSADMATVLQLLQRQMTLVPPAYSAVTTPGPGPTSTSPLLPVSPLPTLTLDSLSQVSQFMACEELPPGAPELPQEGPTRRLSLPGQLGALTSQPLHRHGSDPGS

Human plasma stability = type: in vitro ADME
Plasma protein binding = type: in vitro ADME; conditions: 10 μM, 4 h, 37 °C
[3] = In vitro drug metabolism using human liver microsomes; conditions: HLM
human KCNT2 = molecular target: T2, human KCNT2 (Homo sapiens, UniProt Q6UVM3); assay: Whole-cell patch-clamp, HEK cells expressing KCNT2; type: cell-based; conditions: KCNT2 currents
T2 sequence (Q6UVM3 1-1135): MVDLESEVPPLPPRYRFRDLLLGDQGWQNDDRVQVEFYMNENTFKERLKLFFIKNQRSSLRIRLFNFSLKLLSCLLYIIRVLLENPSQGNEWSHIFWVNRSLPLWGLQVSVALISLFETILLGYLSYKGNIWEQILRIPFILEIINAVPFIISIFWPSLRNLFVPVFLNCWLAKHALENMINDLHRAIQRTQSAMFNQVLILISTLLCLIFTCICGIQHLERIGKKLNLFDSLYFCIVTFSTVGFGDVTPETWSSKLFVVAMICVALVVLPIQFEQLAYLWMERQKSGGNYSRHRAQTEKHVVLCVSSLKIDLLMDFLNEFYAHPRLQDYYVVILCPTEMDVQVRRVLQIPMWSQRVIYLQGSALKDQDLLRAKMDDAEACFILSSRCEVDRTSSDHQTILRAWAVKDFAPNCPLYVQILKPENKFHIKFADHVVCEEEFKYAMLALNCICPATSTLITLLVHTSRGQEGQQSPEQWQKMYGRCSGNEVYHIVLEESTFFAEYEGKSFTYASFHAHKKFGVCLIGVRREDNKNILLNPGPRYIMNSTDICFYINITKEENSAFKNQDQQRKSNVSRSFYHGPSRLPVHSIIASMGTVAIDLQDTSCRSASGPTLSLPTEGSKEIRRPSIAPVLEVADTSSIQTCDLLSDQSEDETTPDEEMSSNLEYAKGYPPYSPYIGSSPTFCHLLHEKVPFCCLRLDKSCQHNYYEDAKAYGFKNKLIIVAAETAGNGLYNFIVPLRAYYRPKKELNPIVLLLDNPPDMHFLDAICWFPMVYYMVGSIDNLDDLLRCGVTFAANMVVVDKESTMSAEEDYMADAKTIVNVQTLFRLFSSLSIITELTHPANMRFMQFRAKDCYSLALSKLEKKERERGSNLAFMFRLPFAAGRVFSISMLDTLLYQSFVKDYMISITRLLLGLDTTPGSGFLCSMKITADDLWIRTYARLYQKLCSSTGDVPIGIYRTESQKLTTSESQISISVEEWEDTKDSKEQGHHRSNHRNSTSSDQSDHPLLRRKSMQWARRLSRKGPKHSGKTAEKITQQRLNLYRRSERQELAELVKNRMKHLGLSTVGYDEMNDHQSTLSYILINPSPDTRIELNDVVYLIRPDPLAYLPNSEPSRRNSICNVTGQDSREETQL

untransfected CHO cells = assay: FluxOR Tl+ fluorescence assay in untransfected CHO cells; type: cell-based, Chinese Hamster; conditions: 10 μM
KCNT1 = conditions: read-out: KCNT1 IC50; cited from earlier work
KCNT2 = conditions: up to 10 μM, Tl+ flux assay; cited from earlier work
[4] = tested on: KCNT1 versus KCNT2 channels; conditions: cited from earlier work

O=C(Nc1cccc(C(F)(F)F)c1)c1ccc2nc(N3C(=O)c4ccccc4C3=O)sc2c1 [BC12]
% of hERG current blocked (hERG channels): 15–20%

Cc1cc(O)ccc1N/C=C/C(=O)c1ccccc1 [BC13]
% of hERG current blocked (hERG channels): 15–20%

CC(C)(C)CNC(=O)Nc1ccc2c(c1)CCN2Cc1ccc(F)cc1 [CPK4, 1-[1-(4-Fluorobenzyl)indolin-5-yl]-3-neopentylurea]
effect on the fluorescent signal (human KCNT1 [1]; 10 μM, followed by LOX 10 μM): markedly reduced the fluorescent signal
blocking time constant (τon) (human KCNT1 [2]): 49.0 ± 9.6 s
inhibition at 10 µM (hERG): 30 to 40%

Oc1ccc2ccccc2c1CNCCc1c[nH]c2ccccc12 [CPK13, 1-{[(2-(1H-Indol-3-yl)ethyl]amino)methyl}naphthalen-2-ol]
blocking time constant (τon) (human KCNT1 [2]): 17.7 ± 2.3 s
inhibition at 10 µM (hERG): 30 to 40%

CCOC(=O)[C@@H]1CS[C@@]2(C(=O)Nc3ccc(Br)cc32)N1C(=O)c1ccc(Cl)cc1 [CPK16, (2′S,4′R)-Ethyl 5-bromo-3′-(4-chlorobenzoyl)-2-oxospiro[indoline-3,2′-thiazolidine]-4′-carboxylate]
hERG-blocking activity (hERG): devoid of hERG-blocking activity

O=C(NCc1ccccc1)[C@H](Cc1c[nH]c2ccccc12)NCc1ccc(Oc2ccccc2)cc1 [CPK18, (S)-N-Benzyl-3-(1H-indol-3-yl)-2-[(4-phenoxybenzyl)amino]propanamide]
recovery at 120 min (Human plasma stability): ≥ 80%
binding to plasma proteins (Plasma protein binding): 99%
clearance category [3]: high
CLint in vivo ([3]; NADPH + UDPGA, scaled with human PBSF): < 80 mL min^–1 kg^–1
hERG-blocking activity (hERG): devoid of hERG-blocking activity

O=S(=O)(Nc1ccc2c(c1)CCN2Cc1ccc(C(F)(F)F)cc1C(F)(F)F)C1CCCCC1 [CPK20, N-{1-[2,4-Bis(trifluoromethyl)benzyl]indolin-5-yl}cyclohexanesulfonamide]
Hill slope (k values) (human KCNT2): −0.57 ± 0.09 mV/efold
recovery at 120 min (Human plasma stability): ≥ 80%
binding to plasma proteins (Plasma protein binding): 99%
clearance category [3]: low clearance
CLint in vitro ([3]; NADPH + UDPGA): < 1 mL min^–1 kg^–1
hERG-blocking activity (hERG): devoid of hERG-blocking activity

CN1CCN(C2=Nc3ccccc3Oc3ccc(Cl)cc32)CC1 [LOX, loxapine]
EC50 (human KCNT1 [1]): 4 ± 1.7 µM
slope of the Tl+ fluorescence curve (human KCNT1 [1]; 10 μM, 15 min preincubation, KCNT1 stably transfected CHO cells): 0.041 ± 0.006
slope of the Tl+ fluorescence curve (untransfected CHO cells): 0.0007 ± 0.0006

C=C[C@H]1C[N@@]2CC[C@H]1C[C@@H]2[C@@H](O)c1ccnc2ccc(OC)cc12 [QND, quinidine]
IC50 (KCNT1): 80 to 100 µM

COc1ccc(Cl)cc1NC(=O)CN1CCN(S(=O)(=O)N2CCC(C)CC2)CC1 [VU0606170]
KCNT2 blocking effect (KCNT2): no KCNT2 blocking effect

CCCCCCC[N+](CC)(CC)CCCCc1ccc(Cl)cc1 [clofilium]
inhibitory potency KCNT1 versus KCNT2 [4]: stronger inhibitory potency for KCNT1 versus KCNT2 channels
